Source: US11066369B2, “N-(pyridin-2-yl)pyridine-sulfonamide derivatives and their use in the treatment of disease” (Novartis AG, priority 2016, dated 2021)
Where a name gives a salt, the structure may show the parent alone.

Assays:
[1] = molecular target: T1, horseradish peroxidase (HRP) tagged delF508-CFTR (Homo sapiens, UniProt P13569, DEL508-508); assay: Measurement of delF508-CFTR-HRP surface expression in CFBE41o- cells; format: cell-based; conditions: delF508-CFTR-HRP surface expression, CFBE41o- cells; for Emax: read-out: DelF508-CFTR-HRP Amax %; for EC50: read-out: DelF508-CFTR-HRP EC50;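 for DelF508-CFTR-HRP Amax %: percent efficacy relative to reference corrector lumacaftor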
T1 construct: expressed in transfected cells
Procedure, shortened: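 Surface-trafficked delF508-CFTR detected via extracellular HRP tag, read as luminescence from a membrane-impermeant substrate in CFBE41o- cells. Cells pre-induced 48h with 500 ng/mL doxycycline, then exposed 24h at 37° C to a 10-point, 3-fold dilution series from 10 μM (DMSO ≤0.5%). Triplicate dose-responses fitted logistically for EC50 after per-plate normalization; fold change versus reference compound.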

[2] = molecular target: T2, delF508-CFTR (Homo sapiens, UniProt P13569, DEL508-508); assay: Measurement of delF508-CFTR functional activity in primary human bronchial epithelial cells (HBECs) using Multi-Transepithelial Clamp Circuit (MTECC-24) assay; format: cell-based; conditions: primary CF HBECs; for MTECC24 CFHBEC- Amax %: test compound added 24h before assay plus potentiator, relative to reference combination (2 μM corrector + 0.5 μM potentiator); for EC50: test compound added 24h before assay, in the presence of potentiator, mean of at least two replicates, read-out: MTECC24 CFHBEC- EC50
T2 construct: functional activity of the CFTR channel (Chloride ion transport) in patient derived primary human bronchial epithelial cells; host or cells: patient-derived primary human bronchial epithelial cells (delF508-CFTR)
Source text: [formula] Measurement of delF508-CFTR Functional Activity in Primary Human Bronchial Epithelial Cells (HBECs) Using Multi-Transepithelial Clamp Circuit (MTECC-24) Assay
This assay measures the functional activity of the CFTR channel (Chloride ion transport) in patient derived primary human bronchial epithelial cells with forskolin activation and in the presence of the CFTR corrector/potentiator combo.
Primary human delF508-CFTR bronchial epithelial cells were purchased from Asterand and cultured according to previously established methods (Fulcher et al. (2005) Methods Mol Med 107: 183-206). Briefly, vendor supplied cells were rapidly defrosted and added to a T175 flask in 50 mL growth media (Lonza BEBM media with Lonza BEGM singlequots). Media was replaced after 24h and then cells were fed every other day until cells were 80-90% confluent, at which point cells were cryopreserved. These P1 vials were thawed at 37° C. as needed and added to T175 flasks in 50 mL growth media at 5×10^5 cells/flask. Media was replaced after 24h, and then cells were fed every other day until 80-90% confluent. Cells were lifted with 5 mL accutase at 37° C. for 5 minutes, centrifuged at 1000 rpms for 5 min (300 g), and resuspended in differentiation media (50% BEBM in DMEM, BEGM singlequots, all trans retinoic acid (5×10^−8M)). Cells were then counted and cell suspension was added to collagen coated inserts at 3×10^4 cells/insert in 0.15 mL with 0.5 mL differentiation media on the basolateral side.
Apical and basolateral media were replaced on alternate days, and following day 7 (or when confluent plus 2 days), air liquid interface was established for approximately two weeks by removal of apical media. One day prior to use on the MTECC24 system (EP-Devices, EP Design, Belgium), 0.15 mL of warmed (37° C.) PBS was added to the apical surface of the cultures and returned to humidifier (37° C., 5% CO2 incubator) for 30 min before aspirating the apical surface to remove any mucus.
Compound treatments were then prepared. Compound dilutions, typically a 10 point concentration response with 1 in 3 dilution steps, were made in 100% DMSO before dilution 1 in 1000 into differentiation medium with a final DMSO concentration of 0.1% or 0.2% for the study. Compound containing medium was then transferred into the wells of a 24 well plate at 0.5 mL per well and warmed for 30 min in a 37° C. incubator prior to transferring washed inserts into the compound containing plates. Cells were incubated in compound containing medium (basolateral only) for 24h prior to measurement in the MTECC24 system.
Following 24 hr treatment, compound dilutions were prepared again, diluted 1 in 1000 into 37° C. assay medium (F-12 Coon's modified, 20 mM HEPES pH7.4 with TRIS Base, No FCS or bicarbonate). Cells which were treated for 24h with test compound were then transferred into plates containing 0.75 mL compound treatment in assay medium (basolateral) and 0.25 mL of the compound containing assay medium was added to the apical surface. The plates were then transferred to the heated plate compartments of the MTECC24 system for 45 min prior to measurements (this can also be done in a non-CO2 37° C. humidified incubator). Basolateral temperature should not exceed 36.5° C. and apical temperature should be approximately 35.5° C.
Modulators were added sequentially as follows while the MTECC24 instrument recorded the equivalent short circuit current (Ieq):
Prior to dilution into F-12 medium the stocks are as follows:
Amiloride stock is 10 mM in H2O
Forskolin Stock is 10 mM in 100% DMSO
(S)-3-amino-6-methoxy-N-(3,3,3-trifluoro-2-hydroxy-2-methylpropyl)-5-(trifluoromethyl)picolinamide is 0.5 mM stock in 100% DMSO
INH-172 (4-[[4-Oxo-2-thioxo-3-[3-trifluoromethyl)phenyl]-5-thiazolidinylidene]methyl]benzoic acid) stock is 30 mM in 100% DMSO
The data was normalized using the median signal from wells treated with 0.1% DMSO as a baseline. […]

T1 sequence (P13569 with tags, fused parts or gaps DEL508-508): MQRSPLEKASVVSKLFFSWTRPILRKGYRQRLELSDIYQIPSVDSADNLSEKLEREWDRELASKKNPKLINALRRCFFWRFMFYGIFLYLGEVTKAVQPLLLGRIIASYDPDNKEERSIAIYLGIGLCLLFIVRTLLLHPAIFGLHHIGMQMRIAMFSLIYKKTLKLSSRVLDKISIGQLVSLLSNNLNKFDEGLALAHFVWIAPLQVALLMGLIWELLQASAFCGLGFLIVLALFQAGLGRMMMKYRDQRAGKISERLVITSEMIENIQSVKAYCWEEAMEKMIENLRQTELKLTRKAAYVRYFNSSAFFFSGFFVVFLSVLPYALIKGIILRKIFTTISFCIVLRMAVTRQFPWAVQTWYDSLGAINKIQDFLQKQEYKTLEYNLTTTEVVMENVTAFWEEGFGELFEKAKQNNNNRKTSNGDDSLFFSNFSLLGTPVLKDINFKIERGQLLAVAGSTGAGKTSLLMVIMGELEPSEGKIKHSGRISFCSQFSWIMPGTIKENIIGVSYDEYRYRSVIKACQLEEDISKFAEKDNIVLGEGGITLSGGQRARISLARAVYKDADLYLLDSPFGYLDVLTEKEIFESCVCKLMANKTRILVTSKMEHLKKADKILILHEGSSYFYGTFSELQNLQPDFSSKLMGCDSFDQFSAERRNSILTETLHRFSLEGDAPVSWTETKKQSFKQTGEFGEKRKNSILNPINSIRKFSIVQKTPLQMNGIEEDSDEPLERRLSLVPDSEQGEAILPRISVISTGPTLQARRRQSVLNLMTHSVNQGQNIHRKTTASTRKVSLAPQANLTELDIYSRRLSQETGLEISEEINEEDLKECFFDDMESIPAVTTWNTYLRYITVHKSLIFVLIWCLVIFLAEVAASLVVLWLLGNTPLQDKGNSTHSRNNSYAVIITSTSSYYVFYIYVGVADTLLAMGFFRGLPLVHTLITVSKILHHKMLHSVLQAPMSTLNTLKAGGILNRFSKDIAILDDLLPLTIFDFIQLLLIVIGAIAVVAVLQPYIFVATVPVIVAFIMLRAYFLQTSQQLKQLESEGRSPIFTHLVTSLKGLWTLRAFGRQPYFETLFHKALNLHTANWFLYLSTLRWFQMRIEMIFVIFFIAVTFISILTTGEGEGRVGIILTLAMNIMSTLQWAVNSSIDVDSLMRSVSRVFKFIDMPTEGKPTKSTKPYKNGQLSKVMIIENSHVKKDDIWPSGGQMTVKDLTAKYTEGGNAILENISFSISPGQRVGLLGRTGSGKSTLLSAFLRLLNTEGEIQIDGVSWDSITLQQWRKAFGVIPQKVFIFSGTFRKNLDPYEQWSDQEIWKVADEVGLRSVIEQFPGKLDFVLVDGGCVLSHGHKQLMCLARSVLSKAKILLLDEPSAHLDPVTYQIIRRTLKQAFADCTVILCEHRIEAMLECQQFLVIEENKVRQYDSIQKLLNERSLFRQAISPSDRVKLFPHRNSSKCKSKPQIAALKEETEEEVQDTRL
T2 sequence (P13569 with tags, fused parts or gaps DEL508-508): as above

Emax [1] [%]	EC50 [1] [nM]	MTECC24 CFHBEC- Amax % [2] [%]	EC50 [2] [nM]	SMILES
301	2580	63.9	28.3	Nc1cccc(S(=O)(=O)Nc2ccc(Cl)c(-c3ccc(F)cc3Cl)n2)n1 [Example 56, 6-amino-N-(5-chloro-6-(2-chloro-4-fluorophenyl)pyridin-2-yl)pyridine-2-sulfonamide]
285	1080	72.9	118	Cc1ccccc1-c1nc(NS(=O)(=O)c2ccnc(N)c2)ccc1Cl [Example 57, 2-amino-N-(5-chloro-6-(o-tolyl)pyridin-2-yl)pyridine-4-sulfonamide]
240	1730	46.1	51.2	COc1ccc(F)cc1-c1nc(NS(=O)(=O)c2cccc(N)n2)ccc1Cl [Example 62, 6-amino-N-(5-chloro-6-(5-fluoro-2-methoxyphenyl)pyridin-2-yl)pyridine-2-sulfonamide]
214	1840	45.8	114	Cc1c(C#N)cccc1-c1nc(NS(=O)(=O)c2cccc(N)n2)ccc1Cl [Example 67, 6-amino-N-(5-chloro-6-(3-cyano-2-methylphenyl)pyridin-2-yl)pyridine-2-sulfonamide]
163	4240	64.2	134	Nc1cccc(S(=O)(=O)Nc2ccc(Cl)c(-c3cccc(C(F)(F)F)c3)n2)n1 [Example 73, 6-amino-N-(5-chloro-6-(3-(trifluoromethyl)phenyl)pyridin-2-yl)pyridine-2-sulfonamide]
158	2580	67.3	283	Cc1cccc(C)c1-c1nc(NS(=O)(=O)c2cccnc2N)ccc1Cl [Example 74, 2-amino-N-(5-chloro-6-(2,6-dimethylphenyl)pyridin-2-yl)pyridine-3-sulfonamide]
137	2280	50.7	96	Nc1cccc(S(=O)(=O)Nc2ccc(Cl)c(-c3c(F)cccc3F)n2)n1 [Example 80, 6-amino-N-(5-chloro-6-(2,6-difluorophenyl)pyridin-2-yl)pyridine-2-sulfonamide]
756	1990	72.2	111	Cc1ccccc1-c1nc(NS(=O)(=O)c2cccc(N3CC4C(N)C4C3)n2)ccc1C(F)(F)F (centres unmarked) [Example 107, 6-(6-amino-3-azabicyclo[3.1.0]hexan-3-yl)-N-(6-(o-tolyl)-5-(trifluoromethyl)pyridin-2-yl)pyridine-2-sulfonamide Hydrochloride]
336	4070	61.4	54.9	Cc1ccccc1-c1nc(NS(=O)(=O)c2cccc(N3CCC(N)CC3)n2)ccc1C(F)(F)F [Example 108, 6-(4-aminopiperidin-1-yl)-N-(6-(o-tolyl)-5-(trifluoromethyl)pyridin-2-yl)pyridine-2-sulfonamide Hydrochloride]
332	2680	84.9	170	CNC1CCN(c2cccc(S(=O)(=O)Nc3ccc(C(F)(F)F)c(-c4ccccc4C)n3)n2)CC1 [Example 109, 6-(4-(methylamino)piperidin-1-yl)-N-(6-(o-tolyl)-5-(trifluoromethyl)pyridin-2-yl)pyridine-2-sulfonamide Hydrochloride]

Continued, compound first:

SMILES	Emax [1] [%]	EC50 [1] [nM]	MTECC24 CFHBEC- Amax % [2] [%]	EC50 [2] [nM]
Nc1cc(S(=O)(=O)Nc2ccc(Cl)c(-c3ccccc3C(F)(F)F)n2)ccn1 [Example 61, 2-amino-N-(5-chloro-6-(2-(trifluoromethyl)phenyl)pyridin-2-yl)pyridine-4-sulfonamide]	251	2620	74.0	103
Cc1ccc(OC(F)(F)F)cc1-c1nc(NS(=O)(=O)c2cccc(N)n2)ccc1Cl [Example 89, 6-amino-N-(5-chloro-6-(2-methyl-5-(trifluoromethoxy)phenyl)pyridin-2-yl)pyridine-2-sulfonamide]	91.5	3860	35.7	39.9
Cc1ccccc1-c1nc(NS(=O)(=O)c2cccc(N3CCC[C@@H](N)C3)n2)ccc1C(F)(F)F [Example 102, (R)-6-(3-aminopiperidin-1-yl)-N-(6-(o-tolyl)-5-(trifluoromethyl)pyridin-2-yl)pyridine-2-sulfonamide Hydrochloride]	577	3280	54.3	136
Cc1ccccc1-c1nc(NS(=O)(=O)c2cccc(N3CCC[C@H](N)C3)n2)ccc1C(F)(F)F [Example 103, (S)-6-(3-aminopiperidin-1-yl)-N-(6-(o-tolyl)-5-(trifluoromethyl)pyridin-2-yl)pyridine-2-sulfonamide Hydrochloride]	370	2970	67.8	94.8
Cc1ccccc1-c1nc(NS(=O)(=O)c2cccc(N[C@@H]3CCCNC3)n2)ccc1C(F)(F)F [Example 104, (R)-6-(piperidin-3-ylamino)-N-(6-(o-tolyl)-5-(trifluoromethyl)pyridin-2-yl)pyridine-2-sulfonamide Hydrochloride]	–	2140	73.4	24.5
Cc1ccccc1-c1nc(NS(=O)(=O)c2cccc(N[C@H]3CCCNC3)n2)ccc1C(F)(F)F [Example 105, (S)-6-(piperidin-3-ylamino)-N-(6-(o-tolyl)-5-(trifluoromethyl)pyridin-2-yl)pyridine-2-sulfonamide Hydrochloride]	310	3190	58.1	222
CO[C@H]1CCNC[C@H]1Nc1cccc(S(=O)(=O)Nc2ccc(C(F)(F)F)c(-c3ccccc3C)n2)n1 [Example 106, 6-(((3R,4S)-4-methoxypiperidin-3-yl)amino)-N-(6-(o-tolyl)-5-(trifluoromethyl)pyridin-2-yl)pyridine-2-sulfonamide Hydrochloride]	912	2580	106.4	79.5
Cc1ccccc1-c1nc(NS(=O)(=O)c2cccc(N3CCC(C)(N)CC3)n2)ccc1C(F)(F)F [Example 110, 6-(4-amino-4-methylpiperidin-1-yl)-N-(6-(o-tolyl)-5-(trifluoromethyl)pyridin-2-yl)pyridine-2-sulfonamide Hydrochloride]	372	2800	65.6	28
